Test results as given in article PMC5779714, “Metallochaperone UreG serves as a new target for design of urease inhibitor: A novel strategy for development of antimicrobials” (PLoS Biology, 2018).
Several values for one entry are separate records, joined by “and”; a condition that tells them apart may be missing. Identical values can stand only once. Like-named read-outs stand apart in the source and are kept apart here.

How the values were obtained:
[1] = molecular target: T1, UreG (Helicobacter pylori, UniProt Q09066); assay: biochemical; type: biochemical, H. pylori
Procedure: (§1) A Malachite Green Phosphate Assay Kit (Abcam) was utilized to quantify the hydrolysis of GTP by UreG under various conditions. […] GTPase activity of UreG was triggered through the addition of 10 mM KHCO3, after which the reaction was incubated at 37°C for 30 min; then, the free phosphate from hydrolysis of GTP was determined. […] To eliminate the potential effect of small compounds on malachite green assay, the assay included a subtraction of the absorbance of reaction with the same amounts of compounds but without UreG enzyme for each reading.

[2] = test system: urease; assay: Phenol-hypochlorite urease assay, lysate of E. coli with urease gene cluster excluding ureG (pHP8080ΔG) supplemented with metal-treated UreG
[3] = parameters: method as in PMID 22179820; conditions: cited from earlier work
[4] = molecular target: urease from jack bean, P. mirabilis, and K. aerogenes; conditions: competitive inhibitor; cited from earlier work
[5] = test system: AGS cells with H. pylori infection; assay: AGS cells with H. pylori infection, inhibitors administrated to the AGS cells (S20 Fig); type: cell-based, human; conditions: 10 μM administrated to AGS cells with H. pylori infection
Text: As expected, low viability of AGS with the supplement of cmpd4 and cmpd8 was observed due to the toxicity of small compounds to mammalian cells. […] (PNG) Click here for additional data file.

[6] = molecular target: T2, urease (Proteus mirabilis, UniProt P17086+P17087+P17088); type: biochemical
T2 construct: endogenous in cells
T2 sequence (P17087 whole entry): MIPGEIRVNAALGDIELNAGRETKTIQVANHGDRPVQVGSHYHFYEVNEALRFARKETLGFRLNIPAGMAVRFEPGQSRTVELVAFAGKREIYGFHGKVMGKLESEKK
T2 sequence (P17088 whole entry): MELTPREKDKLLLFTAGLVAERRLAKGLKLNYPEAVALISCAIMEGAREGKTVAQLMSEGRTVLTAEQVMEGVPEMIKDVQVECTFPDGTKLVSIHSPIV
T2 sequence (P17086 whole entry): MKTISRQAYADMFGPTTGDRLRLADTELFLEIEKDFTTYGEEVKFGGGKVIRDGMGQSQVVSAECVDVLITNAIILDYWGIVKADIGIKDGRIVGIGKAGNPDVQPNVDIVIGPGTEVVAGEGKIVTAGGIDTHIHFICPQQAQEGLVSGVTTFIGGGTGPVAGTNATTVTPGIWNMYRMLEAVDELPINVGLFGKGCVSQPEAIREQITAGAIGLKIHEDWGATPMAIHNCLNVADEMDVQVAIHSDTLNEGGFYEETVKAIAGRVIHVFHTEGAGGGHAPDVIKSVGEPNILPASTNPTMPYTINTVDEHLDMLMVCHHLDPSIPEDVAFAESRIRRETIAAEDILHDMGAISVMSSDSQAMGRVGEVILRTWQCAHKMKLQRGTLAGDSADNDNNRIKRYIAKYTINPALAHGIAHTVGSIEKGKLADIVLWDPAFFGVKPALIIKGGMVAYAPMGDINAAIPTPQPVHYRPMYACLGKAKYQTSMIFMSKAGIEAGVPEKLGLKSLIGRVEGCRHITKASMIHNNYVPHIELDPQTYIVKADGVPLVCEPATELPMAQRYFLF

[7] = test system: urease
[8] = test system: urease; remark: listed apart in the source
[9] = test system: AGS cells exposed to H. pylori; assay: Cell infection model: AGS cells exposed to H. pylori pre-cultured with inhibitors; type: cell-based, human; conditions: H. pylori pre-cultured with 10 μM inhibitor 24 h; MOI 20; 24 h infection; Hp alone 28.8%
[10] = test system: urease; remark: listed apart in the source
[11] = test system: H. pylori; assay: Growth of H. pylori in neutral and acidic brucella broth (OD600); type: cell-based
[12] = test system: urease; remark: listed apart in the source
Target sequence in this assay (P17088 whole entry): as the sequence (P17088 whole entry) above
Target sequence in this assay (P17087 whole entry, further chain): as the sequence (P17087 whole entry) above
Target sequence in this assay (P17086 whole entry, further chain): as the sequence (P17086 whole entry) above

[13] = test system: urease; remark: listed apart in the source
[14] = molecular target: T3, H. pylori urease (Helicobacter pylori, UniProt P14916+P69996); assay: cell-based; type: cell-based
Target sequence in this assay (P14916 whole entry, looked up): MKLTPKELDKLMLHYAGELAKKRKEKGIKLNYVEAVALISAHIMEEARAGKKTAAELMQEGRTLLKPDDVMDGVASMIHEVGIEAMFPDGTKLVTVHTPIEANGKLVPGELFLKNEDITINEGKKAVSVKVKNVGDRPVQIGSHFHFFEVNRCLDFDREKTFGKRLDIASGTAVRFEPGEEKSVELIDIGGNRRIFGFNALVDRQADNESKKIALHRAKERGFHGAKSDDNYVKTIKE
Target sequence in this assay (P69996 whole entry, looked up): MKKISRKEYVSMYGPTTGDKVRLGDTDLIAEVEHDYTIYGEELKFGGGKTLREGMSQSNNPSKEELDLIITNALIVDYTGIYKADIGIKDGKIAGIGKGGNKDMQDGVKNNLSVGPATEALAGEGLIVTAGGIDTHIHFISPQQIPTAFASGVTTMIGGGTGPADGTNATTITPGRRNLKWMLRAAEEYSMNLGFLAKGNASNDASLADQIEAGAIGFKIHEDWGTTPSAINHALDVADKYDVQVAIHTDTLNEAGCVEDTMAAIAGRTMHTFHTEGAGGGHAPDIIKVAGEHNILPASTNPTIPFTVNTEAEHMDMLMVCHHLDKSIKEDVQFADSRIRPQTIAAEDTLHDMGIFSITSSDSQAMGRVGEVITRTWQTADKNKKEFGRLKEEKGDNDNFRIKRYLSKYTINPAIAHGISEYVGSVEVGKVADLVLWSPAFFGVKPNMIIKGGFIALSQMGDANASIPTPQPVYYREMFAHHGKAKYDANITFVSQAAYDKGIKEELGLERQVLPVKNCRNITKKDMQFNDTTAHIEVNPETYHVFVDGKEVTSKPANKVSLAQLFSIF

[15] = test system: urease; remark: listed apart in the source
[16] = molecular target: T1, UreG
Procedure: as §1
(PNG) Click here for additional data file.

[17] = molecular target: T3, H. pylori urease; type: biochemical; parameters: endogenous in cells; host or cells: H. pylori strain 26695 or a clinical isolate
Target sequence in this assay (P69996 whole entry): as the sequence (P69996 whole entry, looked up) above
Target sequence in this assay (P14916 whole entry): as the sequence (P14916 whole entry, looked up) above

[18] = molecular target: T4, urease (Pseudomonas aeruginosa, UniProt Q9HUU5+Q9HUU6+Q9HUU8); assay: Urease activity of extracted P. aeruginosa urease (in vitro); type: biochemical
T4 construct: endogenous in cells
T4 sequence (Q9HUU6 whole entry): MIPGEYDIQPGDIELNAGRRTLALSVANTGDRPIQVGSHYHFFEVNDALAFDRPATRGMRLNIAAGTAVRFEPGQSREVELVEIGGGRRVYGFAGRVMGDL
T4 sequence (Q9HUU5 whole entry): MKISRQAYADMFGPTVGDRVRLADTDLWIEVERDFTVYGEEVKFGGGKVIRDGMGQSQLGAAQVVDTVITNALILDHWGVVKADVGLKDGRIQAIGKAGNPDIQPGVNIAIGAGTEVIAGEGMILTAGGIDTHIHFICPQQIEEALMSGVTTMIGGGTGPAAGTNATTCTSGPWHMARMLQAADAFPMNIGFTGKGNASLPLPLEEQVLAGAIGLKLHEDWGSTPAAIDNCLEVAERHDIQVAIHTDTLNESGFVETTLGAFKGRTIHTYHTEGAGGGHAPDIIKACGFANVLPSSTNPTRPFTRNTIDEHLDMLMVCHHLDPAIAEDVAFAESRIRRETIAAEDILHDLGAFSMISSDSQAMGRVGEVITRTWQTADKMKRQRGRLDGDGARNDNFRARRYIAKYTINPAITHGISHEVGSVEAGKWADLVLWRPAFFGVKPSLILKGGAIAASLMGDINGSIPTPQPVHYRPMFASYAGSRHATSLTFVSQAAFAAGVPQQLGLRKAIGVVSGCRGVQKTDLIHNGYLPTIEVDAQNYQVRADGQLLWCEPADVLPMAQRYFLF
T4 sequence (Q9HUU8 whole entry): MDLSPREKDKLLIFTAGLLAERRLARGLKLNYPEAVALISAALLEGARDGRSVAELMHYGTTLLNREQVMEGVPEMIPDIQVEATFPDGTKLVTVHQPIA

[19] = test system: urease; remark: listed apart in the source
[20] = test system: urease; remark: listed apart in the source
Target sequence in this assay (Q9HUU5 whole entry): as the sequence (Q9HUU5 whole entry) above
Target sequence in this assay (Q9HUU6 whole entry, further chain): as the sequence (Q9HUU6 whole entry) above
Target sequence in this assay (Q9HUU8 whole entry, further chain): as the sequence (Q9HUU8 whole entry) above

[21] = molecular target: the molecule itself; assay: SEC; gel filtration of apo-UreE alone, with or without three molar equivalents of Bi(III) (little effect on the dimer)
[22] = molecular target: the molecule itself; assay: SEC; Superdex 200 10/300 GL; Ni-loaded UreG (UreG with NiSO4 1x, GTP 10x, MgSO4 1 mM) with 1 mM KHCO3; run with or without two molar equivalents of Bi(III) (as BiNTA), which lowered the dimer peak and gave a high molecular weight oligomer
[23] = increasing amounts of CBS during bacterial growth

Molecule: [Bi+3] [Bi(III), reference compound]
- Normalized GTPase activity(%) ([1]; Ni-UreG+Bix1): 29.0%
- Normalized GTPase activity(%) ([1]; Ni-UreG+Bix2): 0.8%
- Normalized GTPase activity(%) ([1]; Ni-UreG+Bix3): 1.7%
- inhibition of GTPase enzyme activity ([1]; further addition of Bi(III) to Ni-UreG): complete inhibition
- Normalized urease activity(%) ([2]; Ni-UreG+Bix1, incubation 40 min): 47.6%
- Normalized urease activity(%) ([2]; Ni-UreG+Bix2, incubation 40 min): 9.3%
- Normalized urease activity(%) ([2]; Ni-UreG+Bix3, incubation 40 min): 5.8%

Molecule: O=C([O-])CN(CC(=O)[O-])CC(=O)[O-].[Bi+3] [BiNTA, Bi nitrilotriacetic acid]
- log Ka of Bi-NTA [3]: 17.55

Molecule: OB(O)O [boric acid]
- Ki [4]: mM levels

Molecule: colloidal bismuth subcitrate [CBS]
- Ammonia in medium [5]: 0.6839 mM
- Normalized cell survival (%) [5]: 78.3784%
- Normalized urease activity(%) (in vitro) ([6]; CBS 2.0 μM): 105.5%
- Normalized urease activity(%) (in vitro) ([6]; CBS 5.0 μM): 122.1%
- Normalized urease activity(%) (in vitro) ([6]; CBS 10.0 μM): 103.7%
- Normalized urease activity(%) (in vitro) ([6]; CBS 20.0 μM): 121.2%
- Normalized urease activity(%) (in vitro) ([6]; CBS 50.0 μM): 96.7%
- Normalized urease activity(%) (in vitro) ([6]; CBS 100.0 μM): 105.5%
- Normalized urease activity(%) (in vitro) ([6]; CBS 200.0 μM): 111.5%
- Normalized urease activity(%) ([7]; CBS 20 μM): 63.4%
- Normalized urease activity(%) ([7]; CBS 50 μM): 37.9%
- Normalized urease activity(%) ([7]; CBS 100 μM): 37.9%
- Normalized urease activity(%) ([7]; CBS 200 μM): 25.6%
- ureolytic activity compared with that without CBS treatment [7, 23]: approximately 20%
- Normalized urease activity(%) (in vitro) ([8]; CBS 2.0 μM): 87.7%
- Normalized urease activity(%) (in vitro) ([8]; CBS 5.0 μM): 84.1%
- Normalized urease activity(%) (in vitro) ([8]; CBS 10.0 μM): 87.2%
- Normalized urease activity(%) (in vitro) ([8]; CBS 50.0 μM): 91.4%
- Normalized urease activity(%) (in vitro) ([8]; CBS 100.0 μM): 87.4%
- Normalized urease activity(%) (in vitro) ([8]; CBS 200.0 μM): 86.8%
- Normalized cell survival (%) [9]: 65.8% ± 9.9% and 65.7658%
- Normalized urease activity(%) (in vitro) ([10]; CBS 25.0 μM): 111.2%
- Normalized urease activity(%) (in vitro) ([10]; CBS 50.0 μM): 127.8%
- Normalized urease activity(%) (in vitro) ([10]; CBS 100.0 μM): 125.1%
- Normalized urease activity(%) (in vitro) ([10]; CBS 200.0 μM): 113.5%
- OD600(pH5) ([11]; acidic brucella broth pH 5.0, 24 h, control 0.93): 0.23 and 0.239
- OD600 (pH7) ([11]; neutral medium, 24 h, control 0.18): 0.127
- Normalized urease activity(%) ([12]; log(CBS[μM]) 1.29073): 42.0322%
- Normalized urease activity(%) ([12]; log(CBS[μM]) 1.59176): 39.1227%
- Normalized urease activity(%) ([12]; log(CBS[μM]) 1.89279): 25.3581%
- Normalized urease activity(%) ([12]; log(CBS[μM]) 2.19382): 25.0224%
- Normalized urease activity(%) (in vitro) ([13]; CBS 25.0 μM): 109.8%
- Normalized urease activity(%) (in vitro) ([13]; CBS 50.0 μM): 113.4%
- Normalized urease activity(%) (in vitro) ([13]; CBS 100.0 μM): 105.1%
- Normalized urease activity(%) (in vitro) ([13]; CBS 200.0 μM): 103.9%
- Normalized urease activity(%) (in vivo) ([14]; CBS 2.0 μM): 89.4%
- Normalized urease activity(%) (in vivo) ([14]; CBS 5.0 μM): 57.6%
- Normalized urease activity(%) (in vivo) ([14]; CBS 10.0 μM): 35.6%
- Normalized urease activity(%) (in vivo) ([14]; CBS 20.0 μM): 10.2%
- drop in urease activity ([14]; CBS 20 μM in culture medium): ca. 90%
- Normalized urease activity(%) ([14]; log(CBS[μM]) 0): 94.7245%
- Normalized urease activity(%) ([14]; log(CBS[μM]) 0.30103): 89.449%
- Normalized urease activity(%) ([14]; log(CBS[μM]) 0.69897): 57.604%
- Normalized urease activity(%) ([14]; log(CBS[μM]) 0.845098): 46.6188%
- Normalized urease activity(%) ([14]; log(CBS[μM]) 1): 35.6336%
- Normalized urease activity(%) ([14]; log(CBS[μM]) 1.17609): 22.938%
- Normalized urease activity(%) ([14]; log(CBS[μM]) 1.30103): 10.2424%
- Normalized urease activity(%) ([14]; log(CBS[μM]) 1.39794): 10.165%
- Normalized urease activity(%) ([14]; log(CBS[μM]) 1.47712): 10.0876%
- Normalized urease activity(%) (in vitro) ([15]; CBS 2.0 μM): 117.5%
- Normalized urease activity(%) (in vitro) ([15]; CBS 5.0 μM): 100.8%
- Normalized urease activity(%) (in vitro) ([15]; CBS 10.0 μM): 95.4%
- Normalized urease activity(%) (in vitro) ([15]; CBS 20.0 μM): 96.5%
- Normalized urease activity(%) (in vitro) ([15]; CBS 50.0 μM): 100.0%
- Normalized urease activity(%) (in vitro) ([15]; CBS 100.0 μM): 106.8%
- Normalized urease activity(%) (in vitro) ([15]; CBS 200.0 μM): 98.8%
- Normalized GTPase activity(%) ([16]; CBS 20 μM): 50.4%
- Normalized GTPase activity(%) ([16]; CBS 50 μM): 22.6%
- Normalized GTPase activity(%) ([16]; CBS 100 μM): 35.8%
- Normalized GTPase activity(%) ([16]; CBS 200 μM): 20.4%
- GTPase activity compared with that without CBS treatment [16, 23]: approximately 20%
- Normalized urease activity(%) (in vitro) ([17]; CBS 2.0 μM): 102.1%
- Normalized urease activity(%) (in vitro) ([17]; CBS 5.0 μM): 93.2%
- Normalized urease activity(%) (in vitro) ([17]; CBS 10.0 μM): 103.8%
- Normalized urease activity(%) (in vitro) ([17]; CBS 20.0 μM): 86.7%
- Normalized urease activity(%) (in vitro) ([17]; CBS 30.0 μM): 92.9%
- Normalized urease activity(%) (in vitro) ([17]; CBS 50.0 μM): 109.1%
- Normalized urease activity(%) (in vitro) ([17]; CBS 100.0 μM): 102.9%
- Normalized urease activity(%) (in vitro) ([17]; CBS 200.0 μM): 94.9%
- inhibitory effect on extracted H. pylori urease ([17]; CBS up to 400 μM): little inhibitory effect
- Normalized urease activity(%) (in vitro) ([18]; CBS 2.0 μM): 102.2%
- Normalized urease activity(%) (in vitro) ([18]; CBS 5.0 μM): 93.5%
- Normalized urease activity(%) (in vitro) ([18]; CBS 10.0 μM): 100.7%
- Normalized urease activity(%) (in vitro) ([18]; CBS 20.0 μM): 99.1%
- Normalized urease activity(%) (in vitro) ([18]; CBS 50.0 μM): 95.8%
- Normalized urease activity(%) (in vitro) ([18]; CBS 100.0 μM): 101.3%
- Normalized urease activity(%) (in vitro) ([18]; CBS 200.0 μM): 99.8%
- Normalized urease activity(%) (in vivo) ([19]; CBS 1.5 μM): 92.5%
- Normalized urease activity(%) (in vivo) ([19]; CBS 3.0 μM): 74.5%
- Normalized urease activity(%) (in vivo) ([19]; CBS 6.0 μM): 62.3%
- Normalized urease activity(%) (in vivo) ([19]; CBS 12.0 μM): 64.2%
- Normalized urease activity(%) (in vivo) ([19]; CBS 25.0 μM): 41.5%
- Normalized urease activity(%) ([19]; log(CBS[μM]) 0.176091): 92.4528%
- Normalized urease activity(%) ([19]; log(CBS[μM]) 0.477121): 74.5283%
- Normalized urease activity(%) ([19]; log(CBS[μM]) 1.39794): 41.5094%
- Normalized urease activity(%) ([19]; log(CBS[μM]) 3): 16.0377%
- Normalized urease activity(%) ([19]; log(CBS[μM]) 3.30103): 13.2075%
- Normalized urease activity(%) ([19]; log(CBS[μM]) 3.60206): 20.7547%
- Normalized urease activity(%) ([20]; log(CBS[μM]) 0.69897): 76.4151%
- Normalized urease activity(%) ([20]; log(CBS[μM]) 1): 79.2453%
- Normalized urease activity(%) ([20]; log(CBS[μM]) 1.30103): 68.1604%
- Normalized urease activity(%) ([20]; log(CBS[μM]) 1.79588): 36.5566%

B1: Helicobacter pylori urease accessory protein UreE (natural protein)
chain: MIIERLVGNLRDLNPLDFSVDHVDLEWFETRKKIARFKTRQGKDIAIRLKDAPKLGLSQGDILFKEEKEIIAVNILDSEVIHIQAKSVAEVAKICYEIGNRHAALYYGESQFEFKTPFEKPTLALLEKLGVQNRVLSSKLDSKERLTVSMPHSEPNFKVSLASDFKVVVK
notes: also called apo-UreE
- stoichiometry N [21]: 2

B2: Helicobacter pylori urease accessory protein UreG (natural protein)
chain: MVKIGVCGPVGSGKTALIEALTRHMSKDYDMAVITNDIYTKEDAEFMCKNSVMPRERIIGVETGGCPHTAIREDASMNLEAVEEMHGRFPNLELLLIESGGDNLSATFNPELADFTIFVIDVAEGDKIPRKGGPGITRSDLLVINKIDLAPYVGADLKVMERDSKKMRGEKPFIFTNIRAKEGLDDVIAWIKRNALLED
notes: also called HpUreG; apo-UreG; source: E. coli BL21(DE3), purified (HisTrap Ni-NTA, thrombin cleavage, EDTA, Superdex 75)
- stoichiometry N [22]: 2
